# Assay results taken from ChEMBL document CHEMBL3885861, “Open TG-GATES”.
# Organism: Rattus norvegicus
# Assay: Open TG-GATES - Regimen: Single
# Type: toxicity, organism-based, Sprague-Dawley
# Parameters: regimen Single, gender Male, age 6 weeks
# Details: in vivo, po, route gavage; for TC / TG / TP / gamma-GTP / A/G / ALP / ALT / AST / BUN / CRE / Ca / Cl / GLC / IP / K / LDH / Na / PL / RALB: tissue Plasma; for APTT / Bas / Eos / Fbg / Hb / Ht / Lym / MCH / MCHC / MCV / Mono / Neu / PT / Plat / RBC / Ret / WBC: tissue Blood; for KIDNEY_L / KIDNEY_R / KIDNEY_TOTAL: tissue Kidney; for LIVER: tissue Liver
# [1] = 300 mg/kg, 24 h, dose level Low
# [2] = 1000 mg/kg, 3 h, dose level Middle
# [3] = 1000 mg/kg, 6 h, dose level Middle
# [4] = 1000 mg/kg, 9 h, dose level Middle
# [5] = 1000 mg/kg, 24 h, dose level Middle
# [6] = 2000 mg/kg, 3 h, dose level High
# [7] = 2000 mg/kg, 6 h, dose level High
# [8] = 2000 mg/kg, 9 h, dose level High
# [9] = 2000 mg/kg, 24 h, dose level High
smiles,measurement,setting,value
O=C(O)c1ccccc1Nc1ccccc1 [FENAMIC ACID],TC,[1],74.8 mg/dL
same,TG,[1],88 mg/dL
same,TP,[1],5.6 g/dL
same,gamma-GTP,[1],1 IU/L
same,TERMINAL_BW,[2],208.9 g
same,APTT,[2],17.2 s
same,Bas,[2],0.8%
same,Eos,[2],0.6%
same,Fbg,[2],253.8 mg/dL
same,Hb,[2],13.4 g/dL
same,Ht,[2],40.2%
same,Lym,[2],71.4%
same,MCH,[2],20.5 pg
same,MCHC,[2],33.5%
same,MCV,[2],61.1 fL
same,Mono,[2],2.8%
same,Neu,[2],24.4%
same,PT,[2],14.1 s
same,Plat,[2],115 x10_4/uL
same,RBC,[2],657.4 x10_4/ul
same,Ret,[2],8%
same,WBC,[2],93.3 x10_2/uL
same,KIDNEY_L,[2],0.9 g
same,KIDNEY_R,[2],0.9 g
same,KIDNEY_TOTAL,[2],1.8 g
same,LIVER,[2],7.8 g
same,A/G,[2],0.9
same,ALP,[2],1837.8 IU/L
same,ALT,[2],38.4 IU/L
same,AST,[2],75.4 IU/L
same,BUN,[2],9.6 mg/dL
same,CRE,[2],0.1 mg/dL
same,Ca,[2],11 mg/dL
same,Cl,[2],105.2 meq/L
same,GLC,[2],169.2 mg/dL
same,IP,[2],10.3 mg/dL
same,K,[2],4 meq/L
same,LDH,[2],71.8 IU/L
same,Na,[2],144 meq/L
same,PL,[2],96.4 mg/dL
same,RALB,[2],2.5 g/dL
same,TC,[2],49 mg/dL
same,TG,[2],37 mg/dL
same,TP,[2],5.4 g/dL
same,gamma-GTP,[2],1 IU/L
same,TERMINAL_BW,[3],203 g
same,APTT,[3],17 s
same,Bas,[3],0.8%
same,Eos,[3],1%
same,Fbg,[3],286.4 mg/dL
same,Hb,[3],13.7 g/dL
same,Ht,[3],40.4%
same,Lym,[3],66.6%
same,MCH,[3],21.2 pg
same,MCHC,[3],34%
same,MCV,[3],62.4 fL
same,Mono,[3],3.2%
same,Neu,[3],28.8%
same,PT,[3],14.4 s
same,Plat,[3],112.9 x10_4/uL
same,RBC,[3],646.6 x10_4/ul
same,Ret,[3],7.7%
same,WBC,[3],98.8 x10_2/uL
same,KIDNEY_L,[3],0.9 g
same,KIDNEY_R,[3],0.9 g
same,KIDNEY_TOTAL,[3],1.8 g
same,LIVER,[3],7.4 g
same,A/G,[3],0.9
same,ALP,[3],1734.6 IU/L
same,ALT,[3],37 IU/L
same,AST,[3],77.6 IU/L
same,BUN,[3],11.4 mg/dL
same,CRE,[3],0.1 mg/dL
same,Ca,[3],11.1 mg/dL
same,Cl,[3],107 meq/L
same,GLC,[3],128.4 mg/dL
same,IP,[3],10.8 mg/dL
same,K,[3],3.9 meq/L
same,LDH,[3],73.4 IU/L
same,Na,[3],146.2 meq/L
same,PL,[3],105.6 mg/dL
same,RALB,[3],2.7 g/dL
same,TC,[3],53 mg/dL
same,TG,[3],37 mg/dL
same,TP,[3],5.8 g/dL
same,gamma-GTP,[3],1.2 IU/L
same,TERMINAL_BW,[4],207.8 g
same,APTT,[4],14.8 s
same,Bas,[4],0.4%
same,Eos,[4],0.8%
same,Fbg,[4],281 mg/dL
same,Hb,[4],13.9 g/dL
same,Ht,[4],41.1%
same,Lym,[4],61.8%
same,MCH,[4],21.2 pg
same,MCHC,[4],33.8%
same,MCV,[4],62.8 fL
same,Mono,[4],3%
same,Neu,[4],33.8%
same,PT,[4],14.6 s
same,Plat,[4],111.6 x10_4/uL
same,RBC,[4],655.6 x10_4/ul
same,Ret,[4],8.2%
same,WBC,[4],80.5 x10_2/uL
same,KIDNEY_L,[4],1 g
same,KIDNEY_R,[4],0.9 g
same,KIDNEY_TOTAL,[4],1.9 g
same,LIVER,[4],7.4 g
same,A/G,[4],0.9
same,ALP,[4],1965.8 IU/L
same,ALT,[4],44.6 IU/L
same,AST,[4],75.4 IU/L
same,BUN,[4],13.8 mg/dL
same,CRE,[4],0.1 mg/dL
same,Ca,[4],11.1 mg/dL
same,Cl,[4],107.8 meq/L
same,GLC,[4],142 mg/dL
same,IP,[4],10.9 mg/dL
same,K,[4],4 meq/L
same,LDH,[4],68.6 IU/L
same,Na,[4],146.2 meq/L
same,PL,[4],102.8 mg/dL
same,RALB,[4],2.6 g/dL
same,TC,[4],45.8 mg/dL
same,TG,[4],29 mg/dL
same,TP,[4],5.7 g/dL
same,gamma-GTP,[4],1 IU/L
same,TERMINAL_BW,[5],210.6 g
same,APTT,[5],14.3 s
same,Bas,[5],0.8%
same,Eos,[5],0.8%
same,Fbg,[5],388 mg/dL
same,Hb,[5],13.5 g/dL
same,Ht,[5],40.1%
same,Lym,[5],70.6%
same,MCH,[5],21.3 pg
same,MCHC,[5],33.8%
same,MCV,[5],62.9 fL
same,Mono,[5],3%
same,Neu,[5],24.8%
same,PT,[5],15 s
same,Plat,[5],114.1 x10_4/uL
same,RBC,[5],637.8 x10_4/ul
same,Ret,[5],7.1%
same,WBC,[5],120.4 x10_2/uL
same,KIDNEY_L,[5],1 g
same,KIDNEY_R,[5],1 g
same,KIDNEY_TOTAL,[5],2 g
same,LIVER,[5],8.4 g
same,A/G,[5],0.9
same,ALP,[5],2284.2 IU/L
same,ALT,[5],41.2 IU/L
same,AST,[5],66 IU/L
same,BUN,[5],16.4 mg/dL
same,CRE,[5],0.2 mg/dL
same,Ca,[5],11.4 mg/dL
same,Cl,[5],106.2 meq/L
same,GLC,[5],164.6 mg/dL
same,IP,[5],8.5 mg/dL
same,K,[5],3.7 meq/L
same,LDH,[5],142 IU/L
same,Na,[5],145.4 meq/L
same,PL,[5],104.6 mg/dL
same,RALB,[5],2.6 g/dL
same,TC,[5],47.4 mg/dL
same,TG,[5],46.2 mg/dL
same,TP,[5],5.6 g/dL
same,gamma-GTP,[5],1 IU/L
same,TERMINAL_BW,[6],207.1 g
same,APTT,[6],15.4 s
same,Bas,[6],0.8%
same,Eos,[6],0.8%
same,Fbg,[6],258.2 mg/dL
same,Hb,[6],13.6 g/dL
same,Ht,[6],39.9%
same,Lym,[6],67.4%
same,MCH,[6],20.6 pg
same,MCHC,[6],34.1%
same,MCV,[6],60.6 fL
same,Mono,[6],3.2%
same,Neu,[6],28%
same,PT,[6],13.9 s
same,Plat,[6],113.5 x10_4/uL
same,RBC,[6],658.8 x10_4/ul
same,Ret,[6],7.9%
same,WBC,[6],76.3 x10_2/uL
same,KIDNEY_L,[6],0.9 g
same,KIDNEY_R,[6],0.9 g
same,KIDNEY_TOTAL,[6],1.9 g
same,LIVER,[6],7.7 g
same,A/G,[6],0.9
same,ALP,[6],1464.2 IU/L
same,ALT,[6],41 IU/L
same,AST,[6],75.6 IU/L
same,BUN,[6],10.8 mg/dL
same,CRE,[6],0.1 mg/dL
same,Ca,[6],10.9 mg/dL
same,Cl,[6],102.8 meq/L
same,GLC,[6],181.8 mg/dL
same,IP,[6],10.9 mg/dL
same,K,[6],4.1 meq/L
same,LDH,[6],88.2 IU/L
same,Na,[6],143.4 meq/L
same,PL,[6],93.4 mg/dL
same,RALB,[6],2.6 g/dL
same,TC,[6],52 mg/dL
same,TG,[6],28.4 mg/dL
same,TP,[6],5.5 g/dL
same,gamma-GTP,[6],1.2 IU/L
same,TERMINAL_BW,[7],206.9 g
same,APTT,[7],15.5 s
same,Bas,[7],0.8%
same,Eos,[7],1%
same,Fbg,[7],277.4 mg/dL
same,Hb,[7],13.7 g/dL
same,Ht,[7],40.6%
same,Lym,[7],71.2%
same,MCH,[7],21 pg
same,MCHC,[7],33.6%
same,MCV,[7],62.6 fL
same,Mono,[7],3%
same,Neu,[7],24%
same,PT,[7],14.2 s
same,Plat,[7],122.7 x10_4/uL
same,RBC,[7],649.2 x10_4/ul
same,Ret,[7],8.1%
same,WBC,[7],106.2 x10_2/uL
same,KIDNEY_L,[7],1 g
same,KIDNEY_R,[7],1 g
same,KIDNEY_TOTAL,[7],2 g
same,LIVER,[7],7.4 g
same,A/G,[7],0.9
same,ALP,[7],1541.4 IU/L
same,ALT,[7],36.4 IU/L
same,AST,[7],76.2 IU/L
same,BUN,[7],12 mg/dL
same,CRE,[7],0.1 mg/dL
same,Ca,[7],11.2 mg/dL
same,Cl,[7],105.6 meq/L
same,GLC,[7],133.2 mg/dL
same,IP,[7],11.6 mg/dL
same,K,[7],4 meq/L
same,LDH,[7],92.8 IU/L
same,Na,[7],145.4 meq/L
same,PL,[7],105.2 mg/dL
same,RALB,[7],2.6 g/dL
same,TC,[7],49.8 mg/dL
same,TG,[7],34.2 mg/dL
same,TP,[7],5.6 g/dL
same,gamma-GTP,[7],1 IU/L
same,TERMINAL_BW,[8],209.9 g
same,APTT,[8],21.5 s
same,Bas,[8],0.6%
same,Eos,[8],1%
same,Fbg,[8],307.4 mg/dL
same,Hb,[8],13.6 g/dL
same,Ht,[8],39.9%
same,Lym,[8],64.6%
same,MCH,[8],20.7 pg
same,MCHC,[8],34%
same,MCV,[8],60.8 fL
same,Mono,[8],3.2%
same,Neu,[8],30.4%
same,PT,[8],14.8 s
same,Plat,[8],110.5 x10_4/uL
same,RBC,[8],656.8 x10_4/ul
same,Ret,[8],8.2%
same,WBC,[8],93.3 x10_2/uL
same,KIDNEY_L,[8],1 g
same,KIDNEY_R,[8],0.9 g
same,KIDNEY_TOTAL,[8],1.9 g
same,LIVER,[8],7.5 g
same,A/G,[8],0.9
same,ALP,[8],1863.4 IU/L
same,ALT,[8],41.8 IU/L
same,AST,[8],82.2 IU/L
same,BUN,[8],14.6 mg/dL
same,CRE,[8],0.1 mg/dL
same,Ca,[8],11.1 mg/dL
same,Cl,[8],105.6 meq/L
same,GLC,[8],144.6 mg/dL
same,IP,[8],11.3 mg/dL
same,K,[8],3.9 meq/L
same,LDH,[8],80.8 IU/L
same,Na,[8],145.6 meq/L
same,PL,[8],105.8 mg/dL
same,RALB,[8],2.7 g/dL
same,TC,[8],45 mg/dL
same,TG,[8],50.2 mg/dL
same,TP,[8],5.7 g/dL
same,gamma-GTP,[8],1 IU/L
same,TERMINAL_BW,[9],211.9 g
same,APTT,[9],15.6 s
same,Bas,[9],1%
same,Eos,[9],0.6%
same,Fbg,[9],436 mg/dL
same,Hb,[9],13.9 g/dL
same,Ht,[9],40.7%
same,Lym,[9],55.8%
same,MCH,[9],20.5 pg
same,MCHC,[9],34.1%
same,MCV,[9],60.2 fL
same,Mono,[9],3.4%
same,Neu,[9],39%
same,PT,[9],15.2 s
same,Plat,[9],121.1 x10_4/uL
same,RBC,[9],675.2 x10_4/ul
same,Ret,[9],8.7%
same,WBC,[9],138 x10_2/uL
same,KIDNEY_L,[9],1 g
same,KIDNEY_R,[9],1 g
same,KIDNEY_TOTAL,[9],2 g
same,LIVER,[9],8.4 g
same,A/G,[9],0.8
same,ALP,[9],2104 IU/L
same,ALT,[9],41.6 IU/L
same,AST,[9],62.2 IU/L
same,BUN,[9],19.2 mg/dL
same,CRE,[9],0.1 mg/dL
same,Ca,[9],11.2 mg/dL
same,Cl,[9],102.8 meq/L
same,GLC,[9],145.8 mg/dL
same,IP,[9],9.4 mg/dL
same,K,[9],3.7 meq/L
same,LDH,[9],131.8 IU/L
same,Na,[9],141.2 meq/L
same,PL,[9],91.4 mg/dL
same,RALB,[9],2.6 g/dL
same,TC,[9],38.2 mg/dL
same,TG,[9],49.2 mg/dL
same,TP,[9],5.7 g/dL
same,gamma-GTP,[9],1 IU/L
